Experimental data published in patent US11780826B2 (Amgen Inc., priority 2017, dated 2023).

Legend:
[1] = system: Bovine cardiac myofibrils; test: In vitro model of dose-dependent myofibril ATPase modulation (AC1.4, pyruvate kinase/lactate dehydrogenase-coupled ATPase assay at pCa25); assay type: biochemical; details: concentration at which ATPase activity was 1.4-fold higher than the bottom of the dose curve, mean of a minimum of two independent tests
Method in brief: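 Compound dilutions were premixed with myofibrils, coupling enzymes, EGTA and CaCl2, then the reaction was started with an equal volume carrying ATP (final 1 mM), NADH and PEP. ATP turnover was followed at 340 nm, and dose responses were fit to a four-parameter equation.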

Male CD rats = test: Echocardiography/ultrasound protocol: fractional shortening (% FS) during intravenous infusion, MEE; assay type: in vivo; design: unit not given here; details: Echocardiography, exposure at 10% increase in % FS from baseline, rat, formulation 40% HPbCD, corrected for rat plasma protein binding
Procedure: Formulations: A compound as disclosed herein and water were admixed together. Either 30% wt/vol or 40% wt/vol of hydroxypropyl beta-cyclodextrin (HPBCD) was added and the mixture stirred until dissolved.
Echocardiography/ultrasound protocol: Serial echocardiography was conducted with the aid of an imaging system suitable for rodent cardiac ultrasound. Male CD rats (6-10 weeks of age; 6-12 animals per group) were cannulated with a jugular vein catheter to enable delivery of test article by intravenous infusion. […] An imaging probe was fixed in position to acquire short axis (SAX), motion (M)—mode images of the left cardiac ventricle at the level of the papillary muscles. Baseline data was acquired prior to initiating test article delivery. Test article (compound as disclosed herein in a HPBCD formulation), or vehicle control, was delivered with the aid of an infusion pump connected to the jugular vein catheter. Infusion rate of test article was increased at 15 min intervals, to a maximum of 5 mL/kg/hr. Ultrasound images were acquired at 5 min intervals. Additionally whole blood (not exceeding 10 uL) was collected via a tail nick at the same 5 min intervals for subsequent exposure determination.
Whole blood samples were analyzed by protein precipitation and liquid chromatography tandem mass spectrometry (LC-MS/MS) using multiple reaction monitoring (MRM) in positive ionization mode. The lower limit of quantitation (LLOQ) in the assay was 1 ng/mL and the upper limit of quantitation (ULOQ) was 10,000 ng/mL.
Offline data analysis of the SAX M-mode ultrasound images was conducted to derive measures of left ventricular end diastolic diameter (LVEDD), left ventricular end systolic diameter (LVESD) and subsequent calculation of fractional shortening (% FS) using the following formula: % FS=((LVEDD−LVESD)/LVEDD)*100. Minimally efficacious exposure (MEE) was defined as the exposure at which a 10% increase in % FS from baseline was observed. The MEE was derived by plotting assayed exposures against % FS and using non-linear curve fitting (log(exposure) vs. % FS; variable slope, 4 parameters). Response to vehicle at each time point was averaged and all test article responses were normalized to baseline and subtracted from time matched (averaged) vehicle responses.

- AC1.4 [1]: 0.846 µM
Structure (SMILES): CS(=O)(=O)c1cc(C(=O)N2[C@@H](C(=O)N[C@@H](c3cc(F)c(Cl)cc3F)C3CC3)C[C@H]3C[C@H]32)ccn1 [Example 314, (1R,3R,5R)—N—((R)-(4-chloro-2,5-difluorophenyl)(cyclopropyl)methyl)-2-(2-(methylsulfonyl)isonicotinoyl)-2-azabicyclo[3.1.0]hexane-3-carboxamide]
- MEE* (unbound), minimally efficacious exposure (Male CD rats): 0.16
